In test [1] the test system is p42^erk2. The experiment in a line: Immunoblot with anti-ERK2 antibody (mobility shift) in Ramos cells. In kind it is cell-based, human. Conditions: PMA 100 ng/ml or anti-IgM 10 μg/ml, anti-CD40 5 μg/ml, 0-60 min. Here is the method: The human Burkitt's lymphoma cell line Ramos was obtained from the American Type Culture Collection (Rockville, Md.), and cells were maintained in RPMI-1640 supplemented with 50 units/ml penicillin-streptomycin, 2 mM glutamine, and 10% FCS. Exponentially growing cells were used in all experiments.
About 1×10^6 Ramos cells were separately treated with 10 μg/ml anti-IgM F(ab′)2 goat anti-human IgM antibody (obtained from Zymed, San Francisco, Calif.) or 5 μg/ml anti-CD40 antibody (G28-5; obtained from Dr. E. A. Clark, Washington University, Seattle, Wash.) for 0, 1, 5, 15, 30 or 60 min. Ramos cells were also treated with phorbol 12-myristate 13-acetate (PMA; obtained from Sigma, St Louis, Mo.). Immunoblot analysis was performed on each of the samples using monoclonal anti-ERK2 antibody in the following method. The treated cells were lysed in 100 μl of lysis buffer (25 mM Tris-HCl, pH 7.6, 50 mM NaCl, 0.5% Na deoxycholate, 2% NP-40, 0.2% SDS, 1 mM PMSF, 50 μg/ml aprotinin, 50 μM leupeptin). Lysates were centrifuged for 10 min at 14,000 rpm in an Eppendorf microcentrifuge, 90 μl of supernatants were mixed with 30 μl of 4×Laemmli sample buffer. Samples were boiled for 5 min. Twenty μl of prepared samples were electrophoresed through a 12% SDS-PAGE gel, and proteins were transferred to nitrocellulose membranes. […]
(A western blot detects proteins with antibodies after separation by electrophoresis.)

Test [2] relates to p42^erk2. The test can be described thus: ERK kinase assay with EGFR662-681 peptide substrate, Ramos cells. In kind it is cell-based, human. Conditions: 100 ng/ml PMA for 20 min, control about 10,000 cpm. Here is the method: Kinase activity was evaluated using EGFRF662-681 peptide as a substrate as described previously (Franklin et al., J. Immunol. 153:4890-4898, 1994). Following stimulation, 10^6 cells were lysed in 75 μl of lysis buffer (70 mM β-glycerophosphate, pH 7.2, […], 2 mM MgCl2, 1 mM EGTA, 0.5% Triton X-100, 5 μg/ml leupeptin, 2 μg/ml aprotinin and 1 mM DTT) and placed on ice for 15 min. Cell lysates were centrifuged at 14,000 rpm for 10 min and 20 μl of supernatant were removed and mixed with 20 μl of 2×kinase buffer (50 mM β-glycerophosphate, pH 7.2, […], 20 mM MgCl2, […], 1 mM EGTA, 400 μM EGFR662-681 peptide, 200 μM ATP and 0.225 mCi/ml[γ-^32P] ATP [ICN Biochemicals, Costa Mesa, Calif.]). After 15 min at 30° C., 10 μl of 250 mM EDTA was added, and 45 μl of the reaction mixture was spotted onto P-81 phosphocellulose paper (Whatman, Clifton, N.J.). The papers were washed four times (5 min each) in 400 ml of 75 mM phosphoric acid and then radioactivity bound to the filter paper was determined by liquid scintillation counting.

Another test concerns p38 MAP kinase. The test can be described thus: p38 immunoprecipitation kinase assay with ATF-2 (1-110), neutrophils. In kind it is cell-based. Conditions: 100 ng/ml LPS, varying time intervals. Here is the method: Neutrophils isolated by the plasma percoll method as previously described (Haslett, C., Am. J. Pathol. 119, 101-110; 1985) were resuspended at about 25×10^6 cells/ml in KRPD containing 0.1% Human Heat Inactivated Platelet-Poor Plasma, 1 mM PMSF, 10, μg/ml leupeptin and 10 μg/ml aprotinin. About 25×10^6 PMN were preincubated for 30 minutes at 37° C., then stimulated with 100 ng/ml LPS for varying time intervals and reactions terminated by a 20 second centrifugation at 15,000 rpm. Cell pellets were lysed with 500 μl cold RIPA (50 mM Tris pH=7.2, 150 mM NaCl, 1.1% SDS, 0.1% sodium deoxycholate, 1% Triton-X-100, 10 mM sodium pyrophosphate, 25 mM M glycerophosphate, 1 mM sodium orthovanadate and 2.1 μg/ml aprotinin), and centrifuged at 15,000 for 10 minutes at 4° C. Triton soluble lysates were initial precleared with Protein A Sepharose for 30 minutes at 4° C., followed by Protein A Sepharose immunoprecipitation with 5 μl/sample polyclonal antibodies specific for p38 and 15 μl of bead suspension, for 120 minutes at 4° C. Beads were washed once in RIPA and twice in PAN (10 mM Pipes, 100 mM NaCl, pH=7.0, and 21 μg/ml aprotinin). […] Reactions were terminated with 2×Laemelli buffer and after boiling, proteins were separated by SDS-PAGE, with quantification of activity by autoradiography and phosphorimaging, and qualitative analysis of enzyme presence and phosphorylation by Western Blotting.

Take `CCCCCCCCCCCCCC(=O)O[C@@H]1[C@@H](C)[C@@]2(O)[C@@H](C=C(CO)C[C@]3(O)C(=O)C(C)=C[C@@H]23)[C@@H]2C(C)(C)[C@]12OC(C)=O` [PMA, phorbol 12-myristate 13-acetate]: the “ERK2 mobility shift (bands reactive with anti-ERK2 antibody)” value in the test on p42^erk2 [1] is on record as “a second band with immunoreactivity to anti-ERK2 antibody appeared”. The “kinase activity (32P incorporation into EGFR662-681 peptide)” value with p42^erk2 [2] is recorded as “about 30,000 counts per minute”.

Consider lipopolysaccharide, for which the “p38 MAP kinase activation” value in the test on p38 MAP kinase is listed as “activated”.

These data come from US20010055753A1, “Method to regulate CD40 signaling” (National Jewish Medical and Research Center, priority 1995, published 2001).
